system: HCC461; test: cell viability assay in HCC461, compound alone; assay type: cell-based; conditions: HCC461, HCC461; Tables 6-9; read-out: IC50 (μM) in cell viability assay in HCC461

`CN[C@@H](C)C(=O)NC(C(=O)N1C[C@@H](NC(=O)c2cccc(C(=O)N[C@H]3C[C@@H](C(=O)N[C@H](C)c4ccccc4)N(C(=O)[C@H](CCC(=O)OC)NC(=O)[C@H](CO)NC)C3)c2)CC1C(=O)N[C@@H]1CCCc2ccccc21)C(C)(C)C` (stereo partly drawn) [Compound 154] was tested. Which IC50 did it give?
Its IC50 is 3.6 µM.

Which IC50 does the source give for `CCC[C@H](NC(=O)[C@H](C)NC)C(=O)N1C[C@@H](NC(=O)c2cccc(C(=O)N[C@H]3C[C@@H](C(=O)N[C@@H]4CCCc5ccccc54)N(C(=O)[C@@H](NC(=O)[C@H](C)NC)C(C)(C)C)C3)c2)C[C@H]1C(=O)N1CCCC1` [Compound 155] here?
The IC50 was 0.467 µM.

How did the IC50 turn out when `CCC[C@H](NC(=O)[C@H](C)NC)C(=O)N1C[C@@H](NC(=O)c2cccc(C(=O)N[C@H]3C[C@@H](C(=O)N[C@@H]4CCCc5ccccc54)N(C(=O)[C@@H](NC(=O)[C@H](C)NC)C(C)(C)C)C3)c2)C[C@H]1C(=O)NC(C)(C)C` [Compound 156] was run?
Its IC50 is 0.083 µM.

Which IC50 does the source give for `CN[C@@H](C)C(=O)N[C@H](C(=O)N1C[C@@H](NC(=O)CC[C@@H](NC(=O)[C@H](NC(=O)[C@@H](C)NC)C(C)(C)C)C(=O)N[C@H]2CCCc3ccccc32)C[C@H]1C(=O)N[C@@H]1CCCc2ccccc21)C(C)(C)C` [Compound 157] here?
The IC50 was 0.03 µM.

How did the IC50 turn out when `CN[C@@H](C)C(=O)N[C@H](C(=O)N1C[C@@H](NC(=O)CC[C@@H](NC(=O)[C@H](NC(=O)[C@@H](C)NC)C(C)C)C(=O)N[C@@H](C)C(C)C)C[C@H]1C(=O)N[C@@H]1CCCc2ccccc21)C(C)(C)C` [Compound 158] was run?
The IC50 was greater than 30 µM.

With `CN[C@@H](C)C(=O)N[C@H](C(=O)N1C[C@@H](NC(=O)CC[C@@H](NC(=O)[C@H](NC(=O)[C@@H](C)NC)C(C)(C)C)C(=O)N[C@H]2CCCc3ccccc32)C[C@H]1C(=O)N[C@H](C)C(C)C)C(C)(C)C` [Compound 159] as the molecule, how does the IC50 read?
The IC50 was 0.221 µM.

`CN[C@@H](C)C(=O)N[C@H](C(=O)N1C[C@@H](NC(=O)CC[C@@H](NC(=O)[C@H](NC(=O)[C@@H](C)NC)C(C)C)C(=O)N[C@@H](C)C(C)C)C[C@H]1C(=O)N[C@H](C)C(C)C)C(C)(C)C` [Compound 160] was tested. Which IC50 did it give?
The IC50 was 29.4 µM.

For `CN[C@@H](C)C(=O)N[C@H](C(=O)N[C@@H](CCCCNC(=O)c1cccc(C(=O)N[C@H]2CC(C(=O)N[C@H](C)c3ccccc3)N(C(=O)[C@@H](NC(=O)[C@H](C)NC)C(C)(C)C)C2)c1)C(=O)N[C@@H](C)C(C)C)C(C)C` (stereo partly drawn) [Compound 162], which IC50 is on record?
The IC50 was greater than 30 µM.

How did the IC50 turn out when `CN[C@@H](C)C(=O)N[C@@H](CCC(=O)N[C@H]1CC(C(=O)N[C@H](C)c2ccccc2)N(C(=O)[C@@H](NC(=O)[C@H](C)NC)C(C)(C)C)C1)C(=O)N[C@H](C(=O)N[C@@H](C)C(C)C)C(C)(C)C` (stereo partly drawn) [Compound 164] was run?
The IC50 was greater than 30 µM.

same assay, conditions: HCC461, HCC461; Tables 15-18; read-out: IC50 (uM) in cell viability assay in HCC461

For `CCN[C@@H](C)C(=O)C[C@H](C(=O)N1CCC[C@H]1C(=O)N[C@@H]1CCCc2ccccc21)c1ccc(C#CCO[C@H](C)[C@H](NC(=O)[C@H](C)NC)C(=O)N2CCC[C@H]2C(=O)N[C@@H]2CCCc3ccccc32)cc1` [Compound H-1], which IC50 is on record?
The IC50 was 0.0171 µM.

Which IC50 does the source give for `C#CC[C@H](NC(=O)[C@H](C)NC)C(=O)N1C[C@@H](n2cc(C[C@H](NC(=O)[C@H](C)NC)C(=O)N3C[C@@H](N=[N+]=[N-])C[C@H]3C(=O)N[C@@H]3CCCc4ccccc43)nn2)C[C@H]1C(=O)N[C@@H]1CCCc2ccccc21` [Compound H-2] here?
The IC50 was 0.114 µM.

For `CN[C@@H](C)C(=O)N[C@@H](Cc1ccc(O[C@H]2C[C@@H](C(=O)N[C@@H]3CCCc4ccccc43)N(C(=O)[C@@H](NC(=O)[C@H](C)NC)C(C)(C)C)C2)cc1)C(=O)N1CCCC1` [Compound H-3], which IC50 is on record?
Its IC50 is 0.088 µM.

`CCC[C@H](NC)C(=O)N[C@H](C(=O)N1CC[C@H](NC(=O)c2cccc(C(=O)N[C@H]3C[C@@H](C(=O)N[C@@H]4CCCc5ccccc54)N(C(=O)[C@@H](NC(C)[C@H](C)NC)C(C)C)C3)c2)C1)C(C)(C)C` (stereo partly drawn) [Compound H-4] was tested. Which IC50 did it give?
Its IC50 is 1.69 µM.

How did the IC50 turn out when `CN[C@@H](C)C(=O)NC(C(=O)N1CCC[C@H]1C(=O)NC1CCCc2ccccc21)c1ccc(C#Cc2ccc(C(NC(=O)[C@H](C)NC)C(=O)N3CCC[C@H]3C(=O)NC3CCCc4ccccc43)cc2)cc1` (stereo partly drawn) [Compound P2-1] was run?
Its IC50 is 0.018 µM.

How did the IC50 turn out when `CN[C@@H](C)C(=O)NC(C(=O)N1CCC[C@H]1C(=O)NC1CCCc2ccccc21)c1ccc(-c2ccc(C(NC(=O)[C@H](C)NC)C(=O)N3CCC[C@H]3C(=O)NC3CCCc4ccccc43)cc2)cc1` (stereo partly drawn) [Compound P2-2] was run?
The IC50 was 0.098 µM.

For `CN[C@@H](C)C(=O)N[C@H](C(=O)N1CCC[C@H]1C(=O)N[C@@H]1CCCc2ccccc21)c1ccc(OCc2ccccc2COc2ccc([C@H](NC(=O)[C@H](C)NC)C(=O)N3CCC[C@H]3C(=O)N[C@@H]3CCCc4ccccc43)cc2)cc1` [Compound P2-3], which IC50 is on record?
Its IC50 is 0.072 µM.

`CN[C@@H](C)C(=O)N[C@@H](CCCCCC[C@H](NC(=O)[C@H](C)NC)C(=O)N1CCC[C@H]1C(=O)N(C)Cc1ccccc1)C(=O)N1CCC[C@H]1C(=O)N(C)Cc1ccccc1` [Compound P2-4] was tested. Which IC50 did it give?
The IC50 was 0.037 µM.

For `CN[C@@H](C)C(=O)N[C@@H](CC#CC#CC[C@H](NC(=O)[C@H](C)NC)C(=O)N1CCC[C@H]1C(=O)NC1c2ccccc2-c2ccccc21)C(=O)N1CCC[C@H]1C(=O)NC1c2ccccc2-c2ccccc21` [Compound P2-5], which IC50 is on record?
Its IC50 is 0.091 µM.

Which IC50 does the source give for `CN[C@@H](C)C(=O)N[C@@H](CCCCCC[C@H](NC(=O)[C@H](C)NC)C(=O)N1CCC[C@H]1C(=O)NC1c2ccccc2-c2ccccc21)C(=O)N1CCC[C@H]1C(=O)NC1c2ccccc2-c2ccccc21` [Compound P2-6] here?
The IC50 was 0.024 µM.

For `CN[C@@H](C)C(=O)N[C@@H](CCCCCC[C@H](NC(=O)[C@H](C)NC)C(=O)N1CCC[C@H]1C(=O)NCc1ccc(F)cc1)C(=O)N1CCC[C@H]1C(=O)NCc1ccc(F)cc1` [Compound P2-7], which IC50 is on record?
The IC50 was 0.17 µM.

For `CN[C@@H](C)C(=O)N[C@@H](CC#CC#CC[C@H](NC(=O)[C@H](C)NC)C(=O)N1C[C@@H](NS(=O)(=O)c2ccccc2)C[C@H]1C(=O)N[C@@H]1CCCc2ccccc21)C(=O)N1C[C@@H](NS(=O)(=O)c2ccccc2)C[C@H]1C(=O)N[C@@H]1CCCc2ccccc21` [Compound P2-11], which IC50 is on record?
The IC50 was 0.171 µM.

With `CC[C@H](NC)C(=O)N[C@@H](CCCCCC[C@H](NC(=O)[C@H](CC)NC)C(=O)N1CCC[C@H]1C(=O)N[C@@H]1CCCc2ccccc21)C(=O)N1CCC[C@H]1C(=O)N[C@@H]1CCCc2ccccc21` [Compound P2-12] as the molecule, how does the IC50 read?
Its IC50 is 0.021 µM.

With `CN[C@@H](C)C(=O)N[C@@H](CCCCCC[C@H](NC(=O)[C@H](C)NC)C(=O)N1C[C@@H](NS(=O)(=O)c2ccccc2)C[C@H]1C(=O)N[C@@H]1CCCc2ccccc21)C(=O)N1C[C@@H](NS(=O)(=O)c2ccccc2)C[C@H]1C(=O)N[C@@H]1CCCc2ccccc21` [Compound P2-14] as the molecule, how does the IC50 read?
The IC50 was 0.092 µM.

Which IC50 does the source give for `CN[C@@H](C)C(=O)N[C@H](C(=O)N1CCC[C@H]1C(=O)NC1c2ccccc2-c2ccccc21)[C@@H](C)OCC#CC#CCO[C@H](C)[C@H](NC(=O)[C@H](C)NC)C(=O)N1CCC[C@H]1C(=O)NC1c2ccccc2-c2ccccc21` [Compound P2-15] here?
Its IC50 is 0.07 µM.

Which IC50 does the source give for `CN[C@@H](C)C(=O)N[C@H](C(=O)N1CCC[C@H]1C(=O)NC1c2ccccc2-c2ccccc21)[C@@H](C)OCCCCCCO[C@H](C)[C@H](NC(=O)[C@H](C)NC)C(=O)N1CCC[C@H]1C(=O)NC1c2ccccc2-c2ccccc21` [Compound P2-16] here?
The IC50 was 0.03 µM.

How did the IC50 turn out when `CN[C@@H](CO)C(=O)N[C@@H](CC#CC#CC[C@H](NC(=O)[C@H](CO)NC)C(=O)N1CCC[C@H]1C(=O)NC1c2ccccc2-c2ccccc21)C(=O)N1CCC[C@H]1C(=O)NC1c2ccccc2-c2ccccc21` [Compound P2-17] was run?
The IC50 was 0.134 µM.

Which IC50 does the source give for `C[C@@H](C(=O)N[C@@H](CC#CC#CC[C@H](NC(=O)[C@H](C)N(C)C(=O)C(F)(F)F)C(=O)N1CCC[C@H]1C(=O)N[C@@H]1CCCc2ccccc21)C(=O)N1CCC[C@H]1C(=O)N[C@@H]1CCCc2ccccc21)N(C)C(=O)C(F)(F)F` [Compound P2-18] here?
Its IC50 is 0.031 µM.

With `CN[C@@H](C)C(=O)N[C@@H](COCC#CC#CCOC[C@H](NC(=O)[C@H](C)NC)C(=O)N1CCCC1C(=O)N[C@@H]1CCCc2ccccc21)C(=O)N1CCCC1C(=O)N[C@@H]1CCCc2ccccc21` (stereo partly drawn) [Compound P2-19] as the molecule, how does the IC50 read?
Its IC50 is 0.025 µM.

With `CN[C@@H](C)C(=O)N[C@@H](COCCCCCCOC[C@H](NC(=O)[C@H](C)NC)C(=O)N1CCCC1C(=O)N[C@@H]1CCCc2ccccc21)C(=O)N1CCCC1C(=O)N[C@@H]1CCCc2ccccc21` (stereo partly drawn) [Compound P2-20] as the molecule, how does the IC50 read?
Its IC50 is 0.043 µM.

same assay, conditions: HCC461; Tables 6-9; read-out: IC50 (μM) in cell viability assay in HCC461

`CN[C@@H](C)C(=O)N[C@H](C(=O)N[C@@H](CCCCNC(=O)c1cccc(C(=O)N[C@H]2CC(C(=O)N[C@@H]3CCc4ccccc4C3)N(C(=O)[C@@H](NC(=O)[C@H](C)NC)C(C)(C)C)C2)c1)C(=O)N[C@@H](C)C(C)C)C(C)(C)C` (stereo partly drawn) [Compound 161] was tested. Which IC50 did it give?
Its IC50 is 2.5 µM.

With `CN[C@@H](C)C(=O)N[C@@H](CCC(=O)N[C@H]1CC(C(=O)N[C@@H]2CCc3ccccc3C2)N(C(=O)[C@@H](NC(=O)[C@H](C)NC)C(C)(C)C)C1)C(=O)N[C@H](C(=O)N[C@@H](C)C(C)C)C(C)(C)C` (stereo partly drawn) [Compound 163] as the molecule, how does the IC50 read?
The IC50 was greater than 30 µM.

How did the IC50 turn out when `CN[C@@H](C)C(=O)N[C@H](C(=O)N1C[C@@H](NC(=O)c2cccc(C(=O)NCCCC[C@H](NC(=O)[C@@H](NC(=O)[C@H](CO)NC)C(C)(C)C)C(=O)N[C@@H](C)C(C)C)c2)CC1C(=O)N[C@@H]1CCc2ccccc2C1)C(C)(C)C` (stereo partly drawn) [Compound 165] was run?
Its IC50 is greater than 30 µM.

same assay, conditions: HCC461; Tables 15-18; read-out: IC50 (uM) in cell viability assay in HCC461

`CC[C@H](NC)C(=O)N[C@@H](CC#CC#CC[C@H](NC(=O)[C@H](CC)NC)C(=O)N1CCC[C@H]1C(=O)N[C@@H]1CCCc2ccccc21)C(=O)N1CCC[C@H]1C(=O)N[C@@H]1CCCc2ccccc21` [Compound P2-8] was tested. Which IC50 did it give?
Its IC50 is 0.009 µM.

`CC[C@H](NC)C(=O)N[C@@H](CC#CC#CC[C@H](NC(=O)[C@H](CC)NC)C(=O)N1CCC[C@H]1C(=O)N[C@@H]1CCCc2ccccc21)C(=O)N1CCC[C@H]1C(=O)N[C@@H]1CCCc2ccccc21` [Compound P2-9] was tested. Which IC50 did it give?
The IC50 was 0.025 µM.

How did the IC50 turn out when `CN[C@@H](C)C(=O)N[C@@H](CC#CC#CC[C@H](NC(=O)[C@H](C)NC)C(=O)N1C[C@@H](NC(C)c2ccccc2)C[C@H]1C(=O)N[C@@H]1CCCc2ccccc21)C(=O)N1C[C@@H](NC(=O)c2ccccc2)C[C@H]1C(=O)N[C@@H]1CCCc2ccccc21` (stereo partly drawn) [Compound P2-10] was run?
The IC50 was 0.109 µM.

Which IC50 does the source give for `CN[C@@H](C)C(=O)N[C@@H](CCCCCC[C@H](NC(=O)[C@H](C)NC)C(=O)N1C[C@@H](NC(=O)c2ccccc2)C[C@H]1C(=O)N[C@@H]1CCCc2ccccc21)C(=O)N1C[C@@H](NC(=O)c2ccccc2)C[C@H]1C(=O)N[C@@H]1CCCc2ccccc21` [Compound P2-13] here?
The IC50 was 0.168 µM.
